Assay results published in patent US11298345B2, “Compounds that modulates AMPA receptor function” (University College Cardiff Consultants Limited, priority 2018, dated 2022).

biological target: T1, human GluR2 flip (unedited) AMPA receptor subunit (Homo sapiens, UniProt P42262); assay: AMPA calcium ion influx assay; format: cell-based; details: HEK293; test compound concentration of 10 μM; HEK 293 cells expressing human GluR2 flip; glutamate stimulus; read-out: Mean % response at 10 μM
T1 construct: host or cells: HEK 293
T1 sequence (P42262 22-883 isoform P42262-2 limits assumed): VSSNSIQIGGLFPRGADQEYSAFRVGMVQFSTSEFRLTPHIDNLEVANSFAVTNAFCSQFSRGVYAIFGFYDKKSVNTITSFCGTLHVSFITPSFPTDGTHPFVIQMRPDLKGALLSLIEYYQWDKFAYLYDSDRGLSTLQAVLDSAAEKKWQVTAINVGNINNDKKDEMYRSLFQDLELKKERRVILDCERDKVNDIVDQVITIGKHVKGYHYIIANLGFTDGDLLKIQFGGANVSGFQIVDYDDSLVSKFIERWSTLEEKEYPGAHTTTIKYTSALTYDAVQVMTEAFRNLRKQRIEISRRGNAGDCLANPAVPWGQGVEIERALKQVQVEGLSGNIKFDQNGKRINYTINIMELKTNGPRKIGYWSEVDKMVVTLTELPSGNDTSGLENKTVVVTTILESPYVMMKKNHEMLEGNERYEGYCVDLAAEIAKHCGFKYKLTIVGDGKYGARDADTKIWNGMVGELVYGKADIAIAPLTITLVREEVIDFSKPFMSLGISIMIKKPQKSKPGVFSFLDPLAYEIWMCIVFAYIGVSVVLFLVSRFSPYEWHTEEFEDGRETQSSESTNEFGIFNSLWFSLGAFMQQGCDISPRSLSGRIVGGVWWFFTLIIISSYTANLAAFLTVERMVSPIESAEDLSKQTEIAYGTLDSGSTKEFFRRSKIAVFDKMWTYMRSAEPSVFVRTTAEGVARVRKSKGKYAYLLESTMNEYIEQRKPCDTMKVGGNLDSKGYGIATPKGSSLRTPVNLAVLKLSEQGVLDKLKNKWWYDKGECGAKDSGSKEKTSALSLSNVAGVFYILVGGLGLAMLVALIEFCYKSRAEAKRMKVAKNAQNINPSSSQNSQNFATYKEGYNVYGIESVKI
Text: The potentiation of AMPA receptors by the compounds of the invention may be assessed by measuring calcium ion influx via AMPA receptors upon exposure of the receptor to glutamate in the presence of a test compound. One such assay is the calcium ion influx assay described in the Examples using cells which express human GluR2 flip (GluA2 flip) AMPA receptor subunits which form functional homotetrameric AMPA receptors. The GluA2 flip sub-units are highly expressed in cortical and sub-cortical brain tissue (Ward et al., 2010, ibid).
The ability of the compounds of the invention to potentiate glutamate receptor-mediated response was determined using fluorescent calcium-indicator dye.
96 well plates were prepared containing confluent monolayer of HEK 293 cells stably expressing human GluR2 flip (unedited) AMPA receptor subunit (obtained from GlaxoSmithKline). These cells form functional homotetrameric AMPA receptors. The tissue culture medium in the wells was discarded and the wells were each washed three times with standard buffer for the cell line ([…] NaCl, 5 mM KCl, 1 mM MgCl2, 2 mM CaCl2, 20 mM N-[2-hydroxyethyl]-piperazine-N-[2-ethanesulfonic acid (HEPES), 5.5 mM glucose, pH7.3). The plates were then incubated for 60 minutes in the dark with 2 μM Calcium 6 dye (Molecular Devices). After incubation, each well was washed three times with buffer (80 μl).
Compounds of the invention were dissolved in dimethylsulfoxide (DMSO) at a stock concentration of 10 mM. These solutions were further diluted with DMSO. Each dilution (4 μl) to another compound plate and buffer (200 μl) was added. An agonist stimulus plate (glutamate) was prepared by dissolving sodium glutamate in water to give a concentration of 100 mM. This solution was diluted with buffer to give a final concentration of 500 μM and dispensed into another 96 well plate (200 μl/well).
The cell plate was then transferred to a fluorescence imaging plate reader such as the Flexstation 3 (Molecular Devices). A baseline fluorescence was taken over a 10 to 240 second period and then 40 μl from each plate containing a compound of the invention made up in standard buffer solution was added. Volumes were chosen to give a final concentration range of 40 μM to 4 μM. The fluorescence was then read over a 4 minute period. The activities of the compounds were determined by measuring peak fluorescence after the last addition. The activity can also be expressed relative to the fluorescence increase induced by cyclothiazide at their maximum response (i.e. greater than 40 μM).

Row | SMILES | activation at 10 µM [%]
1 | O=C1CCCN1Cc1ccc(-c2ccc(CO)c(C(F)(F)F)n2)cc1 [Example 1, 1-[[4-[5-(Hydroxymethyl)-6-(trifluoromethyl)-2-pyridyl]phenyl]methyl]pyrrolidin-2-one] | 33
2 | Cc1cc(C(F)(F)F)nc(-c2ccc(CN3CCCC3=O)cc2)c1CO [Example 2, 1-[[4-[3-(Hydroxymethyl)-4-methyl-6-(trifluoromethyl)-2-pyridyl]phenyl]methyl]pyrrolidin-2-one] | 41
3 | CNC(=O)c1c(C)cc(C(F)(F)F)nc1-c1ccc(CN2CCCC2=O)cc1 [Example 3, N,4-Dimethyl-2-[4-[(2-oxopyrrolidin-1-yl)methyl]phenyl]-6-(trifluoromethyl)pyridine-3-carboxamide] | 4
4 | O=C1CCCN1Cc1ccc(-c2nc(C(F)(F)F)ccc2CO)cc1 [Example 4, 1-[[4-[3-(Hydroxymethyl)-6-(trifluoromethyl)-2-pyridyl]phenyl]methyl]pyrrolidin-2-one] | 9
5 | Cc1cc(C(F)(F)F)nc(-c2ccc(CN3CCCC3=O)cc2)c1C#N [Example 5, 4-Methyl-2-[4-[(2-oxopyrrolidin-1-yl)methyl]phenyl]-6-(trifluoromethyl)pyridine-3-carbonitrile] | 99
6 | Cc1nc(C(F)(F)F)nc(-c2ccc(CN3CCCC3=O)cc2)c1C [Example 6, 1-[[4-[5,6-Dimethyl-2-(trifluoromethyl)pyrimidin-4-yl]phenyl]methyl]pyrrolidin-2-one] | 29
7 | N#Cc1ccc(C(F)(F)F)nc1-c1ccc(CN2CCCC2=O)cc1 [Example 7, 2-[4-[(2-Oxopyrrolidin-1-yl)methyl]phenyl]-6-(trifluoromethyl)pyridine-3-carbonitrile] | 21
8 | O=C1COCCN1Cc1ccc(-c2ccc(CO)c(C(F)(F)F)n2)cc1 [Example 8, 4-[[4-[5-(Hydroxymethyl)-6-(trifluoromethyl)-2-pyridyl]phenyl]methyl]morpholin-3-one] | 14
9 | Cc1cc(C(F)(F)F)nc(-c2ccc(CN3CCOCC3=O)cc2)c1CO [Example 9, 4-[[4-[3-(Hydroxymethyl)-4-methyl-6-(trifluoromethyl)-2-pyridyl]phenyl]methyl]morpholin-3-one] | 14
10 | O=C1COCCN1Cc1ccc(-c2nc(C(F)(F)F)ccc2CO)cc1 [Example 10, 4-[[4-[3-(Hydroxymethyl)-6-(trifluoromethyl)-2-pyridyl]phenyl]methyl]morpholin-3-one] | 3
11 | N#Cc1ccc(C(F)(F)F)nc1-c1ccc(CN2CCOCC2=O)cc1 [Example 11, 2-[4-[(3-Oxomorpholin-4-yl)methyl]phenyl]-6-(trifluoromethyl)pyridine-3-carbonitrile] | 11
12 | Cc1cc(C(F)(F)F)nc(-c2ccc(CN3CCCOCC3=O)cc2)c1CO [Example 12, 4-[[4-[3-(Hydroxymethyl)-4-methyl-6-(trifluoromethyl)-2-pyridyl]phenyl]methyl]-1,4-oxazepan-3-one] | 9
13 | Cc1cc(C(F)(F)F)nc(-c2ccc(CN3CCOCCC3=O)cc2)c1CO [Example 13, 4-[[4-[3-(Hydroxymethyl)-4-methyl-6-(trifluoromethyl)-2-pyridyl]phenyl]methyl]-1,4-oxazepan-5-one] | 5

Results, then the compound that gave them:

Row | activation at 10 µM [%] | SMILES
14 | 5 | Cc1cc(C(F)(F)F)nc(-c2ccc(CN3CCCC3=O)nc2)c1CO [Example 14, 1-[[5-[3-(Hydroxymethyl)-4-methyl-6-(trifluoromethyl)-2-pyridyl]-2-pyridyl]methyl]pyrrolidin-2-one]
15 | 6 | N#Cc1ccc(C(F)(F)F)nc1-c1ccc(CN2CCCC2=O)nc1 [Example 15, 2-[6-[(2-Oxopyrrolidin-1-yl)methyl]-3-pyridyl]-6-(trifluoromethyl)pyridine-3-carbonitrile]
16 | 28 | O=C1CCCN1Cc1ccc(-c2ccc(CF)c(C(F)(F)F)n2)cc1 [Example 16, 1-[[4-[5-(Fluoromethyl)-6-(trifluoromethyl)-2-pyridyl]phenyl]methyl]pyrrolidin-2-one]
17 | 111 | Cc1cc(C(F)(F)F)nc(-c2ccc(CN3CCCC3=O)cc2)c1CF [Example 17, 1-[[4-[3-(Fluoromethyl)-4-methyl-6-(trifluoromethyl)-2-pyridyl]phenyl]methyl]pyrrolidin-2-one]
18 | 5 | O=C1CCCN1Cc1ccc(-c2nc(C(F)(F)F)ncc2CF)cc1 [Example 18, 1-[[4-[5-(Fluoromethyl)-2-(trifluoromethyl)pyrimidin-4-yl]phenyl]methyl]pyrrolidin-2-one]
19 | 70 | O=C1CCCN1Cc1ccc(-c2nc(C(F)(F)F)ccc2CF)cc1 [Example 19, 1-[[4-[3-(Fluoromethyl)-6-(trifluoromethyl)-2-pyridyl]phenyl]methyl]pyrrolidin-2-one]
20 | 112 | Cc1cc(C(F)(F)F)nc(-c2ccc(CN3CCOCC3=O)cc2)c1CF [Example 20, 4-[[4-[3-(Fluoromethyl)-4-methyl-6-(trifluoromethyl)-2-pyridyl]phenyl]methyl]morpholin-3-one]
21 | 16 | O=C1COCCN1Cc1ccc(-c2nc(C(F)(F)F)ccc2CF)cc1 [Example 21, 4-[[4-[3-(Fluoromethyl)-6-(trifluoromethyl)-2-pyridyl]phenyl]methyl]morpholin-3-one]
22 | 93 | Cc1cc(C(F)(F)F)nc(-c2ccc(CN3CCCC3=O)nc2)c1CF [Example 22, 1-[[5-[3-(Fluoromethyl)-4-methyl-6-(trifluoromethyl)-2-pyridyl]-2-pyridyl]methyl]pyrrolidin-2-one]
23 | 9 | O=C1CCCN1Cc1ccc(-c2nc(C(F)(F)F)ccc2CF)cn1 [Example 23, 1-[[5-[3-(Fluoromethyl)-6-(trifluoromethyl)-2-pyridyl]-2-pyridyl]methyl]pyrrolidin-2-one]
24 | 39 | Cc1cc(C(F)(F)F)nc(-c2ccc(CN3CCOCC3=O)cc2)c1C#N [Example 24, 4-Methyl-2-[4-[(3-oxomorpholin-4-yl)methyl]phenyl]-6-(trifluoromethyl)pyridine-3-carbonitrile]
25 | 8 | O=C1CCCN1Cc1ccc(-c2cc(CO)cc(C(F)(F)F)n2)cc1 [Example 25, 1-[[4-[4-(Hydroxymethyl)-6-(trifluoromethyl)-2-pyridyl]phenyl]methyl]pyrrolidin-2-one]
26 | 4 | COCc1cc(-c2ccc(CN3CCCC3=O)cc2)nc(C(F)(F)F)c1 [Example 26, 1-[[4-[4-(Methoxymethyl)-6-(trifluoromethyl)-2-pyridyl]phenyl]methyl]pyrrolidin-2-one]
27 | 27 | Cc1cc(C(F)(F)F)nc(-c2ccc(CN3CCCC3=O)cc2)n1 [Example 27, 1-[[4-[4-Methyl-6-(trifluoromethyl)pyrimidin-2-yl]phenyl]methyl]pyrrolidin-2-one]
28 | 2 | O=C1CCCN1Cc1ccc(-c2nc(C(F)F)ccc2CO)cc1 [Example 28, 1-[[4-[6-(Difluoromethyl)-3-(hydroxymethyl)-2-pyridyl]phenyl]methyl]pyrrolidin-2-one]
